18 compounds from patent EP4810484A1, “NEUROACTIVE ANDROGEN RECEPTOR MODULATOR AND USE THEREOF” (Endochem Pharmaceuticals (Beijing) Co., Ltd., priority 2023, dated 2025) can be followed below.

A short description of series [1]: Log P (Table 1, no method described).
Series [2] can be described thus: Mouse blood-brain barrier permeation assay (LC-MS/MS of serum and brain). The class given is in vivo, C57BL/6J mice. Conditions: for concentrations of the compound detected in serum and brain (in words): 20 mg/kg intraperitoneal. The method, then: Mouse blood-brain barrier permeation assay
Blood was collected by decapitation from the mice (each time point/3 mice) at the following time points: 30 min, 1 h, 2 h, 3 h, 4 h, 8 h, and brain tissue and blood were harvested at 12 h, 24 h, 36 h, 48 h and 72 h. • (3) When collecting serum, heparin sodium blood collection tubes were used.
The supernatant was filtered through a 0.22 µm filter and analyzed by LC-MS/MS.

The target of series [3] is T1, recombinant human androgen receptor (AR) protein (Homo sapiens, UniProt P10275).
T1 construct: RPB252Hu03, Ile673-His918 with N-terminal His Tag; His tag (N); purchased CLOUD-CLONE CORP; WUHAN RPB252Hu03
T1 sequence (P10275 673-918): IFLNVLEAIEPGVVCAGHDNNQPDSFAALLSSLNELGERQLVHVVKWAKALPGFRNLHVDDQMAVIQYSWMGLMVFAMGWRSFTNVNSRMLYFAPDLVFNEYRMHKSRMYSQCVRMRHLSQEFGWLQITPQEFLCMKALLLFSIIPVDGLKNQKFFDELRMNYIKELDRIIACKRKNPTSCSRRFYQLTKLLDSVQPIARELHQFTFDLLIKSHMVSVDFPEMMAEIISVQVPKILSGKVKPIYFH
In words: Small molecule-protein affinity (protein-ligand coupling) assay, Biacore T200 SPR. To be noted: summary of Table 1. The format is binding. For orientation: In SPR one partner is held on a chip, and binding of the other changes the refractive index at the surface.

Another series has as its target T2, androgen receptors (Homo sapiens, UniProt P10275).
T2 construct: expressed in transfected cells; host or cells: HEK293T (ATCC, CRL-3216)
T2 sequence (P10275 1-920): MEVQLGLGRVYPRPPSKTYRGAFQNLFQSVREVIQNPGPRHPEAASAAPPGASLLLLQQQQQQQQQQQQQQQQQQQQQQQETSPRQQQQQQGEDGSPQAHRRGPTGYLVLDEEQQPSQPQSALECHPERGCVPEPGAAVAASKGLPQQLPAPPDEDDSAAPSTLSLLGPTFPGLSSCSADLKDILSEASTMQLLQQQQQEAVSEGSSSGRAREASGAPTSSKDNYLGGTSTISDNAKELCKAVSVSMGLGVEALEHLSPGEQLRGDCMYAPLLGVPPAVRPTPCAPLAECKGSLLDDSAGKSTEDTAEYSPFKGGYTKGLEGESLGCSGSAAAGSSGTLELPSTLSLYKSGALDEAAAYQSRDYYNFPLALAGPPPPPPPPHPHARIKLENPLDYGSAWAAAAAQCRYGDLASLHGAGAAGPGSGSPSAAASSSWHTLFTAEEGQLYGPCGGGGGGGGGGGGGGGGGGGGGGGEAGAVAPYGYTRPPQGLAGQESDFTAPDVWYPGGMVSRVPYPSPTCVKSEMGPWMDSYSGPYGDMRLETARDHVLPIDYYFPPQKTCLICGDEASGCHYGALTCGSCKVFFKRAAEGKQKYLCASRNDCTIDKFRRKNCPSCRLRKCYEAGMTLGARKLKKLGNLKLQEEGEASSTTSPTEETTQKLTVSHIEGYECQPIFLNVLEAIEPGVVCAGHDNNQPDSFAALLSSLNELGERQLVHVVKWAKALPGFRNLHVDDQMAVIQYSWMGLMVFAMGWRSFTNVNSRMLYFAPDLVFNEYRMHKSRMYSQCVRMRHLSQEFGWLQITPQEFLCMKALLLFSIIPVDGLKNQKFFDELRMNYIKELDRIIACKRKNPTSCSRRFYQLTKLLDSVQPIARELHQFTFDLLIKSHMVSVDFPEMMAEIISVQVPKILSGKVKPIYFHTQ
As to the kind of experiment: Androgen Receptor Reporter Gene Assay in plasmid-transfected HEK293T cells. The class given is cell-based. To be noted: HEK-293T.

The logP is a log measure of how a compound divides between an organic and an aqueous phase. Low readings indicate lower lipophilicity, high ones higher lipophilicity. As to `C[C@](O)(Cn1cnc(C(F)(F)F)cc1=O)C(=O)Nc1cnc(C#N)c(C(F)(F)F)c1` [Example 1], the logP in series [1] came to 2.62.
On to `C[C@](O)(Cn1cnc(C(F)(F)F)cc1=O)C(=O)Nc1ccc(C#N)c(C(F)(F)F)c1` [Example 2], for which the log partition coefficient (logP) in series [1] turned out to be 3.53.
In turn, `C[C@](O)(COc1ccc(C#N)cc1)C(=O)Nc1cnc(C#N)c(C(F)(F)F)c1` [Example 3, (S)-N-(6-cyano-5-(trifluoromethyl)pyridin-3-yl)-3-(4-cyanophenoxy)-2-hydroxy-2-methylpropionamide] yielded a logP in series [1] of 2.53. Also, in series [2], the “concentrations of the compound detected in serum and brain (in words)” value (“concentrations of the compound detected” below) is “certain concentrations of the compound were detected in serum and brain up to 72 h after administration”.
Regarding `C[C@](O)(COc1ccc(C#N)nc1)C(=O)Nc1ccc(C#N)c(C(F)(F)F)c1` [Example 4, (S)-N-(4-cyano-3-(trifluoromethyl)phenyl)-3-((6-cyanopyridin-3-yl)oxy)-2-hydroxy-2-methylpropionamide], the logP in series [1] was 2.53.
Same read-out and setting: the value for `C[C@](O)(COc1ccc(C#N)nc1)C(=O)Nc1cnc(C#N)c(C(F)(F)F)c1` [Example 5, (S)-N-(6-cyano-5-(trifluoromethyl)pyridin-3-yl)-3-((6-cyanopyridin-3-yl)oxy)-2-hydroxy-2-methylpropionamide] was 1.61.
In the case of `C[C@](O)(COc1ccc(C#N)c(F)c1)C(=O)Nc1cnc(C#N)c(C(F)(F)F)c1` [Example 8, (S)-3-(4-cyano-3-fluorophenoxy)-N-(6-cyano-5-(trifluoromethyl)pyridin-3-yl)-2-hydroxy-2-methylpropionamide], the “concentrations of the compound detected” value in series [2] is “certain concentrations of the compound were detected in serum and brain up to 72 h after administration”.
As for `C[C@@](COc1ccc(C#N)nc1)(OC(=O)c1cccnc1)C(=O)Nc1ccc(C#N)c(C(F)(F)F)c1` [Example 11, (S)-1-((4-cyano-3-(trifluoromethyl)phenyl)amino)-3-((6-cyanopyridin-3-yl)oxy)-2-methyl-1-oxopropan-2-yl nicotinate], the logP in series [1] was 3.32.
For `C[C@@](COc1ccc(C#N)cc1)(OC(=O)c1cccnc1)C(=O)Nc1cnc(C#N)c(C(F)(F)F)c1` [Example 13, (S)-1-((6-cyano-5-(trifluoromethyl)pyridin-3-yl)amino)-3-(4-cyanophenoxy)-2-methyl-1-oxopropan-2-yl nicotinate], the logP in series [1] is 3.32. The “concentrations of the compound detected” value in series [2] is “lower concentrations of the compound and higher concentrations of metabolites were detected in serum and brain”.
`CN(C)CCC(=O)O[C@@](C)(COc1ccc(C#N)cc1)C(=O)Nc1cnc(C#N)c(C(F)(F)F)c1` [Example 14, (S)-1-((6-cyano-5-(trifluoromethyl)pyridin-3-yl)amino)-3-(4-cyanophenoxy)-2-methyl-1-oxopropyl-2-yl 3-(dimethylamino)propanate] came in with a logP in series [1] of 2.86.
In the case of `C[C@@](COc1ccc(C#N)cc1)(OC(=O)CCCC[C@@H]1CCSS1)C(=O)Nc1cnc(C#N)c(C(F)(F)F)c1` [Example 15, (S)-1-((6-cyano-5-(trifluoromethyl)pyridin-3-yl)amino)-3-(4-cyanophenoxy)-2-methyl-1-oxopropyl-2-yl 5-((R)-1,2-dithiolan-3-yl) pentanoate], in series [2], the “concentrations of the compound detected” value is “no effective concentration of the compound was detected in serum and brain”.
The compound `CCCS(=O)(=O)O[C@@](C)(COc1ccc(C#N)cc1)C(=O)Nc1cnc(C#N)c(C(F)(F)F)c1` [Example 17, (S)-1-((6-cyano-5-(trifluoromethyl)pyridin-3-yl)amino)-3-(4-cyanophenoxy)-2-methyl-1-oxopropan-2-yl propane-1-sulfonate] had a logP in series [1] of 3.07.
As to `CN1CCC(C(=O)O[C@@](C)(COc2ccc(C#N)cc2)C(=O)Nc2cnc(C#N)c(C(F)(F)F)c2)CC1` [Example 19, (S)-1-((6-cyano-5-(trifluoromethyl)pyridin-3-yl)amino)-3-(4-cyanophenoxy)-2-methyl-1-oxopropyl-2-yl-1-methylpiperidine-4-carboxylate], in series [1], the logP came out at 3.2.
For `CC(C)C(=O)O[C@@](C)(COc1ccc(C#N)cc1)C(=O)Nc1cnc(C#N)c(C(F)(F)F)c1` [Example 21, (S)-1-((6-cyano-5-(trifluoromethyl)pyridin-3-yl)amino)-3-(4-cyanophenoxy)-2-methyl-1-oxopropan-2-yl isobutyrate], the “concentrations of the compound detected” value in series [2] is “lower concentrations of the compound and higher concentrations of metabolites were detected in serum and brain”.
In series [1], `CC(=O)O[C@@](C)(COc1ccc(C#N)cc1)C(=O)Nc1cnc(C#N)c(C(F)(F)F)c1` [Example 24, (S)-1-((6-cyano-5-(trifluoromethyl)pyridin-3-yl)amino)-3-(4-cyanophenoxy)-2-methyl-1-oxopropan-2-yl acetate] came in with a log partition coefficient (logP) of 2.76. The “bioavailability in the brain” value in series [2] (compared with the compound of Example 3) is reported as “significantly improved”.
As for `C[C@@](COc1ccc(C#N)cc1)(OC(=O)c1ccccc1)C(=O)Nc1cnc(C#N)c(C(F)(F)F)c1` [Example 26, (S)-1-((6-cyano-5-(trifluoromethyl)pyridin-3-yl)amino)-3-(4-cyanophenoxy)-2-methyl-1-oxopropan-2-yl benzoate], the logP in series [1] was 4.65. Besides, in series [2], the “concentrations of the compound detected” value is “lower concentrations of the compound and higher concentrations of metabolites were detected in serum and brain”. Further, the “affinity to the androgen receptor proteins (in words)” value in series [3] was “strong affinity”.
For `CCC(=O)O[C@@](C)(COc1ccc(C#N)cc1)C(=O)Nc1cnc(C#N)c(C(F)(F)F)c1` [Example 28, (S)-1-((6-cyano-5-(trifluoromethyl)pyridin-3-yl)amino)-3-(4-cyanophenoxy)-2-methyl-1-oxopropan-2-yl-propionate], in series [2], the “concentrations of the compound detected” value was “lower concentrations of the compound and higher concentrations of metabolites were detected in serum and brain”.
`CN1C=CCC(C(=O)O[C@@](C)(COc2ccc(C#N)cc2)C(=O)Nc2ccc(C#N)c(C(F)(F)F)c2)=C1` [Example 35, (S)-1-((4-cyano-3-(trifluoromethyl)phenyl)amino)-3-(4-cyanophenoxy)-2-methyl-1-oxopropan-2-yl 1-methyl-1,4-dihydropyridine-3-carboxylate]: the logP in series [1] turned out to be 4.45.
In general, Emax refers to the maximal effect, on the per cent scale that the assay sets. `C[C@](O)(COc1ccc(C#N)cc1)C(=O)Nc1ccc(C#N)c(C(F)(F)F)c1` [Ostarine, reference compound]: the Emax on androgen receptors amounted to 78.4%. The compound also returned a logP in series [1] of 3.49. Also, the “affinity to the androgen receptor proteins (in words)” value in series [3] was “no binding affinity”.
